Key:
[1] = test system: H1299 and A549 cells; experiment: Cytotoxicity and apoptosis assays; type: cell-based, human; settings: 10, 30, 50, and 100 μM; data not shown
Protocol: (§1) Typically, the small molecule compounds of the present invention were dissolved in DMSO at a concentration of 30 mM. The small molecule compounds were then tested under cell culture conditions at different concentrations ranging from 0, 10, 30, 50, to 100 uM. To determine cell survival after treatment, the cells were incubated with the small molecule compounds in 6-well plates for about 3 days. After removal of the cell culture medium, 1-ml of 0.5% crystal violet solution (prepared in 20% ethanol and 20% methanol) was added to stain the cells for 5 min. Then the crystal violet solution was rinsed clean with tap water. Cell survival was estimated based on the density of crystal stained plates.
(§2) Apoptosis was analyzed by using an Annexin V FITC Apoptosis Detection Kit (Biosource, Camarillo, Calif.), according to the manufacturer's protocol. After treatment with different small molecule compounds at various concentrations for about 3 days, cells were harvested by trypsinization, stained and immediately analyzed by flow cytometry (FACScan; Decton Dickinson, Franklin Lake, N.J.). Early apoptotic cells with exposed phosphatidylserine but intact cell membranes will bind to Annexin V-FITC, but not propidium iodide (PI). Cells in necrotic or late apoptotic stages will be labeled with both Annexin V-FITC and PI. […]

[2] = test system: mesothelioma cell line MS-1; experiment: Cytotoxicity and apoptosis assays; type: cell-based, human; settings: 10, 30, 50, and 100 μM (FN1-9U effect at 100 μM)
Protocol: as §1, §2

[3] = test system: colon cancer cell lines SW480 and HCT116; experiment: Cytotoxicity and apoptosis assays; type: cell-based, human; settings: 10, 30, 50, and 100 μM; data not shown
Protocol: as §1, §2

[4] = test system: primary cultured human mesothelioma cells; experiment: Cell survival assay (crystal violet); type: cell-based; settings: 50 and 100 μM, 3 days
Protocol: Fresh cancer tissue and adjacent normal tissue from patients undergoing curative primary resection of their tumors were collected at the time of surgery (IRB approval H8714-15319-040), and immediately snap-frozen in liquid nitrogen. These tissue samples were kept at −170° C. in a liquid nitrogen freezer until further use. Primary tissue cultures were prepared as follows: Fresh cancer tissue was obtained with consent from patients undergoing resection, cut into small pieces (1-2 mm in diameter), and then digested with Collagenase A (Roche Applied Science, Indianapolis, Ind.) at room temperature for 2 hours according to manufacture's protocol. Single cells from the digestion were spun down and the cell pellets were washed twice using RPMI 1640 supplemented with 10% fetal bovine serum, penicillin (100 IU/ml) and streptomycin (100 μg/ml). Then, the cells were resuspended in the same medium and cultured in 6-well plates at 37° C. in a humid incubator with 5% CO2 until they were ready for further treatments.
as §1
Next, the effect of different small molecule compounds on primary cultured human mesothelioma cells freshly made from tissue samples was examined. The primary cultures were plated in 6-well plates as described herein and incubated with 50 and 100 μM of each compound (FN1-5, FN1-7, FN1-8, and FN3-5; stocks were dissolved in DMSO at 30 mM) for 3 days. […] (FIG. 8).

[5] = test system: melanoma cell line LOX; experiment: Cell survival assay (crystal violet); type: cell-based, human; settings: 100 μM, 3 days
Protocol: as §1
The effect of small molecule compounds FN1-5, FN1-8, FN1-7, FN1-9U, and FN1-9S was tested using a cytotoxicity assay and the melanoma cell line LOX. LOX cells were plated in 6-well plates and incubated with 100 μM of each compound (stocks were dissolved in DMSO at 30 mM) for 3 days, as described herein. […] Live cells were stained by 0.5% crystal violet.
Cell killing was also tested using human melanoma cell line LOX and different doses of the small molecule compounds FN1-5 and FN1-8. LOX cells were plated in 6-well plates and incubated with 10, 30, and 50 μM of each compound for 3 days, as described herein.

[6] = test system: human SOCS3 promoter in NSCLC cell line A549; experiment: SOCS3 promoter-luciferase reporter assay; type: cell-based; settings: A549, 30 μM, 18-24 hours
Protocol: One day before transfection, cells (1×10^5) were plated in 12-well plates with growth medium without antibiotics. When cells reached 80-90% of confluence they were co-transfected using 0.5 μg of each promoter construct in pGL3Basic vector and 0.025 μg pRL-TK Vector (Promega; Madison, Wis.) containing Renilla Luciferase as an internal control for the transformation efficiency. Lipofectamine 2000™ (Invitrogen Life Technologies) was used to mediate transfection for about 6 hours. Then the medium was replaced with fresh medium containing various small molecule compounds at a concentration of 30 μM, and the resulting cells were cultured for an additional 18-24 hours and subjected to luciferase assay. Briefly, cells were lysed in a lysis buffer and Firefly and Renilla Luciferase activities in cells of each well, were measured using Dual-Luciferase Assay System (Promega) and an illuminometer. The measured luciferase activities were normalized to pRL-TK Vector activity and were given relative to the basal activity of empty pGL3-Basic Vector, which was set to unity. The data shown represent mean values (±S.D.). All measurements were performed in triplicate and repeated in at least three independent experiments. The human Wnt-2 promoter-luciferase construct, the human SOCS3 promoter-Luciferase construct and the human Gremlin promoter-luciferase construct were cloned and characterized in the laboratory of Dr. Jablons at the University of California, San Francisco (San Francisco, Calif.; He et al., Biochem Biophy Res Comm, 2003; and unpublished data). The 6GLI-TKO-luciferase construct (containing 6 repeats of consensus GLI DNA binding sequence) was kindly provided by Dr. Matthias Hebrok's laboratory at the University of California, San Francisco (San Francisco, Calif.).
As a third specificity test for the small molecule compounds of the present invention, the ability of these compounds to regulate the expression of genes that are not down-stream targets of the Gli activation was analyzed. SOCS3, an inhibitor and down-stream target gene of JAK/STAT pathway was chosen for this experiment. Expression of SOCS3 is not under control of Gli and/or Wnt activation. Furthermore, no GLI and TCF binding sites were found in the human SOCS3 promoter cloned in the laboratory of Dr. Jablons (University of California, San Francisco; data not shown). Thus, SOCS3 promoter-luciferase reporter activity was measured after the treatment of the NSCLC cell line A549 with small molecule compounds FN1-5, FN1-7, FN1-8, and FN1-9U.

[7] = test system: normal human muscle cells; experiment: Cell survival assay (crystal violet); type: cell-based; settings: 1, 10, 30, and 50 μM, 3 days
Protocol: as §1
The cell killing effect of small molecule compounds FN1-8, FN1-7, and FN1-5 at different doses was examined in normal human muscle cells. […] Normal muscle cells were plated in 6-well plates and incubated with 1, 10, 30, and 50 μM of each compound for 3 days, in the same manner as described herein for similar other experiments. […] Both FN1-5 and FN1-8 seem to be specific in killing cancer cells.

Structure (SMILES)	cell killing effect or apoptosis [1]	cell killing effect or apoptosis [2]	cell killing effect or apoptosis [3]	cell killing effect [4]	cell killing effect [5]	SOCS3 promoter activity [6]	cell killing effect in normal cells [7]
O=C(O)CCCCNC(=O)C1C(c2ccccc2)C(c2ccccc2)=NN1c1ccccc1 (stereo not shown) [FN1-9S, 5-(1,3,4-triphenyl-4,5-dihydro-pyrazole-5-carbonyl)aminopentanoic acid]	no noticeable cell killing effect or apoptosis	no cell killing effect or apoptosis	No dramatic cell killing effect or apoptosis	–	–	–	–
CC(C)CC1=NN(c2ccccc2)C(CC(C)C)C1C(=O)NCCCCCO (stereo not shown) [FN3-5, N-(5-Hydroxypentyl)-1-phenyl-3,5-bis(isobutyl)-4,5-dihydro-pyrazole-4-carboxyamide]	–	–	–	No significant cell killing	–	–	–
O=C(O)CCCCNC(=O)C1C(c2ccccc2)=NN(c2ccccc2)C1c1ccccc1 (stereo not shown) [FN1-9U, 5-(1,3,5-Triphenyl-4,5-dihydro-pyrazole-4-carbonyl)aminopentanoic acid]	no noticeable cell killing effect or apoptosis	some cell killing	No dramatic cell killing effect or apoptosis	–	Some killing	inactive	–
O=C(NCCCO)C1C(c2ccccc2)=NN(c2ccccc2)C1c1ccccc1 (stereo not shown) [FN1-7, N-(3-Hydroxypropyl)-1,3,5-triphenyl-4,5-dihydro-pyrazole-4-carboxyanide]	–	–	–	No significant cell killing	Some killing	inactive	No noticeable cell killing effect

— patent US7714014B2, “Targeting GLI proteins in human cancer by small molecules” (The Regents of the University of California, priority 2005, dated 2010)
